How the values were obtained:
[1] = 10 μM, 37° C.
hNav1.7 [2] = target: T1, hNav1.7 (Homo sapiens, UniProt Q15858); assay: automated whole-cell patch clamp (QPatch 16X), HEK293-hNav1.7; format: cell-based
T1 construct: host or cells: HEK293

hNav1.1 = target: T2, hNav1.1 (Homo sapiens, UniProt P35498); assay: automated whole-cell patch clamp (QPatch 16X), HEK293-hNav1.1; format: cell-based
T2 construct: host or cells: HEK293

CVH mice = assay: visceromotor response (VMR) to colorectal distension in chronic visceral hypersensitivity (CVH) mice; format: in vivo, mouse; settings: intra-colonic 200 nM
Protocol: Model of Chronic Visceral Hypersensitivity (CVH). All experiments were performed in accordance with the guidelines of the Animal Ethics Committees of the South Australian Health and Medical Research Institute (SAHMRI) and Flinders University. Male C57 BL/6 mice were used in all experiments.
Colitis was induced by administration of Trinitrobenzene Sulphonic acid (TNBS) as described previously (Castro et al., Gut 66(6):1083-1094 (2017); Osteen et al., Nature 534: 494-499 (2016)). Briefly, 13-week-old mice were fasted overnight with access to 5% glucose solution. After the fasting period, isofluorane anaesthetized mice were administered an intracolonic enema of 0.1 mL TNBS ([…] in 30% EtOH) via a polyethylene catheter inserted 3 cm past the anus. […]
In vivo Visceromotor Responses (VMR) to Colorectal Distension (CRD). […] The EMG electrodes were relayed to a data acquisition system and the signal was recorded (NL100AK headstage), amplified (NL104), filtered (NL 125/126, Neurolog, Digitimer Ltd, bandpass 50-5000 Hz) and digitized (CED 1401, Cambridge Electronic Design, Cambridge, UK) to a PC for off-line analysis using Spike2 (Cambridge Electronic Design). […] To quantify the magnitude of the VMR at each distension pressure, the area under the curve (AUC) during the distension (20 s) was corrected for the baseline activity (AUC pre-distension, 20 s).

hNav1.7 [3] = target: T1, hNav1.7; assay: conventional whole cell patch clamp, kinetic studies on hNav1.7; format: cell-based
Protocol: Conventional patch clamp. Coverslips containing cells of HEK293 stable expressing hNav1.7 α and human β1 subunits were placed in a recording chamber on the stage of an inverted microscope with the extracellular solution containing 140 mM NaCl, 2 mM CaCl2, 4 mM KCl, 1 mM MgCl2, and 10 mM HEPES (pH 7.4 with NaOH). […] All recordings were made at room temperature (22-24° C.) using MultiClamp 700B amplifier, Axo™ Digidata® 1550B and PCLAMP software (Molecular Devices). Nav channel currents were measured using the whole cell configuration of the patch clamp technique. All peptides were dissolved in the extracellular solution with 0.1% BSA. The effects of peptides were tested by using the same voltage protocol as showing in the Qpatch technique. Concentration response data were analysed using nonlinear least-squares fit of the log (inhibitor) vs. response (three parameters) (GraphPad Prism 7) to provide pIC50 determinations. The conductance-voltage (G-V) relationships obtained by using a protocol in which cells depolarised from a holding potential of −120 mV, stepping from −80 to +60 mV in 5 mV increments. Steady-state inactivation was obtained by applying a depolarisation to 0 mV following a series step potential from −120 mV to 20 mV in 5 mV increments. The V0.5 activation and inactivation were calculated by fitting data with Boltzmann equation in GraphPad Prism 7. Recovery from fast inactivation was obtained by applying a first 0 mV pulse followed by repolarisation to −120 mV and a second pulse to 0 mV after a period ranging from 0 to 50 ms, increasing in 1 ms increments. The time constant was calculated by fitting data with one-phase decay in GraphPad Prism 7.

hNav1.2 = target: T3, hNav1.2 (Homo sapiens, UniProt Q99250); assay: automated whole-cell patch clamp (QPatch 16X), HEK293-hNav1.2; format: cell-based
T3 construct: host or cells: HEK293

hNav1.6 = target: T4, hNav1.6 (Homo sapiens, UniProt Q9UQD0); assay: automated whole-cell patch clamp (QPatch 16X), HEK293-hNav1.6; format: cell-based
T4 construct: host or cells: HEK293

[4] = 60 nM, compared to vehicle, P<0.01

T3 sequence (Q07699 19-218): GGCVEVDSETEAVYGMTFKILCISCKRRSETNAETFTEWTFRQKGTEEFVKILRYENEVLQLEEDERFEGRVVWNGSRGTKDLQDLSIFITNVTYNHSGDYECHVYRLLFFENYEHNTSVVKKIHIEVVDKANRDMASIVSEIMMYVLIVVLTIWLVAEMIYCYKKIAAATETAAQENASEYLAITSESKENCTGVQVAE
T3 sequence (Q99250 whole entry): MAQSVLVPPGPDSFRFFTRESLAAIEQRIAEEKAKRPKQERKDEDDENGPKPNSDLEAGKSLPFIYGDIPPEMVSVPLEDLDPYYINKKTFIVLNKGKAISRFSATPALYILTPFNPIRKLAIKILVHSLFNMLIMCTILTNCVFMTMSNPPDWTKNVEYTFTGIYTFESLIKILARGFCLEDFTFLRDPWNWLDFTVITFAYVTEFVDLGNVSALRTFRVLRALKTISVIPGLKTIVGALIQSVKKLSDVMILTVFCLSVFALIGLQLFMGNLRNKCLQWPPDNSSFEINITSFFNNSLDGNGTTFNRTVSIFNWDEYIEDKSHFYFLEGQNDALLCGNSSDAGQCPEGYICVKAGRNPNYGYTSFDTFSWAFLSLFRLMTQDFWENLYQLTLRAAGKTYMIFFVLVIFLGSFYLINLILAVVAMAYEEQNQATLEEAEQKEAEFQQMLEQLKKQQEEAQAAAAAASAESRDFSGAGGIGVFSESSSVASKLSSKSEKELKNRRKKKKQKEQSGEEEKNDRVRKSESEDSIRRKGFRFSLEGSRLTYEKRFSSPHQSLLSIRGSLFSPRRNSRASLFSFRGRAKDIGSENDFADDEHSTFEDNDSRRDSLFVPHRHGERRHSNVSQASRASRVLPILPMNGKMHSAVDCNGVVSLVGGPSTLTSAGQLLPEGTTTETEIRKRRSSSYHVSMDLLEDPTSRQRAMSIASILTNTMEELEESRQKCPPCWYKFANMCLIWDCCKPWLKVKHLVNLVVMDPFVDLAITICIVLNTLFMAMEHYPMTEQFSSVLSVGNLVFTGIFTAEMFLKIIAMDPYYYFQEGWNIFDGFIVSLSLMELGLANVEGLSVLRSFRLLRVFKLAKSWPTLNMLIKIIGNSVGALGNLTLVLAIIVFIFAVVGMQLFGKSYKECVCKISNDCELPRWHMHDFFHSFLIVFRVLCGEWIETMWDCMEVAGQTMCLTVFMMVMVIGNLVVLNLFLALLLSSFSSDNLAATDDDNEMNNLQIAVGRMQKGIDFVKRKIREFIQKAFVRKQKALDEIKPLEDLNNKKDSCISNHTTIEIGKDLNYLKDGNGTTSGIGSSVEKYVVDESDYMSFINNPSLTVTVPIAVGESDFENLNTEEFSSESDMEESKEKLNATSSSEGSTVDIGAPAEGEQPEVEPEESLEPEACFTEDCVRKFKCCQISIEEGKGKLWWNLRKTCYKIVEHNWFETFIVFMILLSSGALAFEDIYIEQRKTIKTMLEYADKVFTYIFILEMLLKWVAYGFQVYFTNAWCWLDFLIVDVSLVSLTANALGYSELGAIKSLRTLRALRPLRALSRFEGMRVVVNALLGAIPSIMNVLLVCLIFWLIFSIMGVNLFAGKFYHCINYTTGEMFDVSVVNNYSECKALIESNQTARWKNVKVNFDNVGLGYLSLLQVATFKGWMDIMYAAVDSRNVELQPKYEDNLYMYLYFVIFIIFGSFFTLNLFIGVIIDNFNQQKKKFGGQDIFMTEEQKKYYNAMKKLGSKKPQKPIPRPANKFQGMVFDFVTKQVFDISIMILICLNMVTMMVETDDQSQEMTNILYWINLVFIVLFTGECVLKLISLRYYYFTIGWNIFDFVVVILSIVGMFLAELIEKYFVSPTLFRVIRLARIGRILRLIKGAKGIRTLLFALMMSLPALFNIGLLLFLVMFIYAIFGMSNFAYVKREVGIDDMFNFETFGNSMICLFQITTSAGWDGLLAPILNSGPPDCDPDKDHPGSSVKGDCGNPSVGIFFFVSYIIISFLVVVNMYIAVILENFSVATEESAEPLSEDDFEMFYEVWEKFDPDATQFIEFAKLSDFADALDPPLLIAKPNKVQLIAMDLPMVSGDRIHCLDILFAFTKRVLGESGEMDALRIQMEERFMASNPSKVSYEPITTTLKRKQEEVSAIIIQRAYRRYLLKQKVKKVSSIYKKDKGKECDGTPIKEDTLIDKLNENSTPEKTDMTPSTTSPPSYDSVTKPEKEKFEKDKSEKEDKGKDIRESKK
T4 sequence (Q07699 19-218): as the sequence (Q07699 19-218) above
T4 sequence (Q9UQD0 whole entry): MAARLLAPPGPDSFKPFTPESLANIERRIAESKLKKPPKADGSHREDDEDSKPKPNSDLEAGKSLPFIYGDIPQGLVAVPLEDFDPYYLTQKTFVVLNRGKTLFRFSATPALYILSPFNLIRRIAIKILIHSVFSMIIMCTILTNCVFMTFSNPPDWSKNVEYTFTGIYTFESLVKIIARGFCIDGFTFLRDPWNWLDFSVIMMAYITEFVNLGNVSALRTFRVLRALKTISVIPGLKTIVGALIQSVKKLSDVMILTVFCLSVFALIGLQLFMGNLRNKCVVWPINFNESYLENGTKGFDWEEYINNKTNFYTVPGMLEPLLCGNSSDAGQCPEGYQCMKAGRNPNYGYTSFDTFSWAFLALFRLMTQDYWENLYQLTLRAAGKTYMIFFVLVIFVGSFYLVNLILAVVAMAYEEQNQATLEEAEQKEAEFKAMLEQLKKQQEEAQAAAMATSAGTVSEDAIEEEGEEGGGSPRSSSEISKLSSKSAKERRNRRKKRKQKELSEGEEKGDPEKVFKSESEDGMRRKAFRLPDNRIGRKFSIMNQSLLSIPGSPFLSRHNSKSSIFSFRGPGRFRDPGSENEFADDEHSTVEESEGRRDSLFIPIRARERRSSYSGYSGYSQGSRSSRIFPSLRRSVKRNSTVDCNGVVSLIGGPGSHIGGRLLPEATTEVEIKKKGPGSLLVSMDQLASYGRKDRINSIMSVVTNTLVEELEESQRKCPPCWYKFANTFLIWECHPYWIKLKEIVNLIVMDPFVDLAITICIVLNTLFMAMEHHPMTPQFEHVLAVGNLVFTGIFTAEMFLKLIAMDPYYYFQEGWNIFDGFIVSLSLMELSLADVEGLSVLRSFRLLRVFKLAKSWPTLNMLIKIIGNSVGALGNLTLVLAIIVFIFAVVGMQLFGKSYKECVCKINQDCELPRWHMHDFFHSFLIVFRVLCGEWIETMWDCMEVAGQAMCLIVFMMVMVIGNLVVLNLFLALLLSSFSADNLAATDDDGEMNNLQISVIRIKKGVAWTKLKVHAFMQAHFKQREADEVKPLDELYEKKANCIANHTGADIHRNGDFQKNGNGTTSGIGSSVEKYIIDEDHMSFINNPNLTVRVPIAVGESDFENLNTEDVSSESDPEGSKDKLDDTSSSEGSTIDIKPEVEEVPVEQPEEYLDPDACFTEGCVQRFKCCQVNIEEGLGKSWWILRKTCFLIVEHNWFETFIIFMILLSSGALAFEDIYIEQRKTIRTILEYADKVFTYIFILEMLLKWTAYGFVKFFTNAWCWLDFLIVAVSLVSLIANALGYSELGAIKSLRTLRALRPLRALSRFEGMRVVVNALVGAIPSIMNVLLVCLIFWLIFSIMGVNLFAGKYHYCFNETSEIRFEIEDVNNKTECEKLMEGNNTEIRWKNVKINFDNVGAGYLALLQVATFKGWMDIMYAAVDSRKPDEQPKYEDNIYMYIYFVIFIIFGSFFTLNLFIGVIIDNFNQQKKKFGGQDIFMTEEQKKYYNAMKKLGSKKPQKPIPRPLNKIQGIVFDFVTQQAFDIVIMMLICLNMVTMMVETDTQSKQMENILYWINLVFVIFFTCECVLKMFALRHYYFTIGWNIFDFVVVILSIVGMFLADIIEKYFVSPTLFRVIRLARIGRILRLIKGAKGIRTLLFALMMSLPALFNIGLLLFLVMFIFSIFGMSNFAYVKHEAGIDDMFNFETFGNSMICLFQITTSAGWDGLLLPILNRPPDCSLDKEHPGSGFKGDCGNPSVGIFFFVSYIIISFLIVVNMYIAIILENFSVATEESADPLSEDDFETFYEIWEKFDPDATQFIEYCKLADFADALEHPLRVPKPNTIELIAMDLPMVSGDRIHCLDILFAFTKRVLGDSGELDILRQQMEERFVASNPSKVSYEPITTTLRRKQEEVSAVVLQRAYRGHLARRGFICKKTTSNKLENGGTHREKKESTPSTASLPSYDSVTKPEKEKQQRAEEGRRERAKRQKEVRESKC

**Q.** With CC[C@H](C)[C@H](NC(=O)[C@H](CCCCN)NC(=O)[C@@H]1CSSC[C@@H]2NC(=O)[C@@H]3CCCN3C(=O)[C@H](CCCNC(=N)N)NC(=O)[C@H](CCC(=O)O)NC(=O)[C@H](CO)NC(=O)[C@H](CC(=O)O)NC(=O)[C@@H]3CSSC[C@H](NC(=O)[C@H](C(C)C)NC(=O)[C@H](CC(C)C)NC(=O)CNC(=O)[C@H](CCC(=O)O)NC(=O)[C@H](CSSC[C@H](NC(=O)[C@@H](N)Cc4ccc(O)cc4)C(=O)N[C@@H](CCC(N)=O)C(=O)N[C@@H](CCCCN)C(=O)N[C@@H](Cc4ccccc4)C(=O)N[C@@H](CC(C)C)C(=O)N[C@@H](Cc4c[nH]c5ccccc45)C(=O)N[C@@H]([C@@H](C)O)C(=O)N3)NC2=O)C(=O)N[C@@H](CCCNC(=N)N)C(=O)N[C@@H](CC(C)C)C(=O)N[C@@H](Cc2c[nH]c3ccccc23)C(=O)N1)C(=O)N[C@@H](CC(N)=O)C(N)=O [sHsp1a] as the compound, how does the “amount in human serum after 24 hours” value [1] read?
**A.** The value was “remained constant”.

**Q.** And the hNav1.7 currents blocked (hNav1.7 [2]; at 200 nM)?
**A.** Its hNav1.7 currents blocked is 70%.

**Q.** And the inhibition at 2 µM (hNav1.7 [2]; at 2 μM, read-out: current inhibition hNav1.7)?
**A.** Its inhibition at 2 µM is 75%.

**Q.** What about the IC50 (hNav1.7 [2]; mean±S.E.M, read-out: pIC50 on hNav1.7 (converted)) of the same compound?
**A.** Its IC50 is 10.5 nM.

**Q.** What about the hNav1.1 currents blocked (hNav1.1; at 200 nM) of the same compound?
**A.** The hNav1.1 currents blocked was 30%.

**Q.** And the inhibition at 2 µM (hNav1.1; at 2 μM, read-out: current inhibition hNav1.1)?
**A.** Its inhibition at 2 µM is 75%.

**Q.** What about the IC50 (hNav1.1; mean±S.E.M, read-out: pIC50 on hNav1.1 (converted)) of the same compound?
**A.** The IC50 was 407 nM.

**Q.** And the “VMR to colorectal distension compared to CVH vehicle treated animals” value (CVH mice)?
**A.** Its value is “significantly reduced the VMR”.

**Q.** What about the “V0.5 inactivation Δ” value (hNav1.7 [3]; [4]) of the same compound?
**A.** Its value is −11.62 mV.

**Q.** And the “Δτ, recovery from fast inactivation” value (hNav1.7 [3]; [4])?
**A.** The value was 1 ms.

**Q.** What about the “time for currents to recover following washout in peptide-free solution” value (hNav1.7 [3]; after application of 200 nM for 4 min) of the same compound?
**A.** Its value is about 10 min.

**Q.** What about the “time constant τ of recovery from fast inactivation” value (hNav1.7 [3]; in presence of 60 nM, n=5, mean±SEM) of the same compound?
**A.** Its value is 5.03 ± 0.43 ms.

**Q.** What about the hNav1.2 currents blocked (hNav1.2; at 200 nM) of the same compound?
**A.** The hNav1.2 currents blocked was 30%.

**Q.** What about the inhibition at 2 µM (hNav1.2; at 2 μM, read-out: max. current inhibition hNav1.2) of the same compound?
**A.** The inhibition at 2 µM was 60%.

**Q.** And the IC50 (hNav1.2; mean±S.E.M, read-out: pIC50 on hNav1.2 (converted))?
**A.** Its IC50 is 302 nM.

**Q.** And the “inhibition of hNav1.6 currents” value (hNav1.6; at 200 nM)?
**A.** Its value is “did not show any significant inhibition”.

**Q.** What about the inhibition at 2 µM (hNav1.6; at 2 μM, read-out: max. current inhibition hNav1.6) of the same compound?
**A.** Its inhibition at 2 µM is under 50%.

**Q.** What about the IC50 (hNav1.6; read-out: pIC50 on hNav1.6 (converted)) of the same compound?
**A.** Its IC50 is over 1000 nM.

Reference: patent US20220089663A1, “PROTEINS AND FLUOROPHORE-CONTAINING COMPOUNDS SELECTIVE FOR NaV1.7” (MEMORIAL SLOAN KETTERING CANCER CENTER, priority 2019, published 2022)
